The text below walks through data of patent publication US10729668B2, “Ketobutyrate compounds and compositions for treating age-related symptoms and diseases” (The Regents of the University of California, priority 2014, dated 2020).

The subject of one test is male mice. The experiment in a line: In vivo ischemia reperfusion injury, coronary artery occlusion. Further details: species or system mouse. The following applies: 800 μM single bolus via tail vein at onset of reperfusion, 24 hours reperfusion, n=6. The protocol: The LAD is occluded in male mice for 30 minutes followed by a 24 hour reperfusion. At the onset of reperfusion one bolus of α-KB or PBS was applied via tail vein.
To examine the cardioprotective role of α-KB, an in vivo model of ischemia reperfusion injury was used. The left coronary artery was occluded for 30 minutes in male mice followed by 24 hours of reperfusion. One single bolus of PBS (vehicle control) or α-KB (800 μM) was applied through the tail vein at the onset of reperfusion (FIG. 9A).

Another test concerns Isolated hearts. The experiment in a line: Isolated heart ischemia and reperfusion (LVDP). The following applies: 30 minutes ischemia, 60 minutes reperfusion, post-ischemic administration. The method, then:
Isolated hearts were subjected to 30 minutes ischemia followed by 60 minutes of reperfusion with control buffer, 2-KB, (R)-2-hydroxybutyrate, (R)-3-hydroxybutyrate (also known as ketone body), α-KG, and the Complex I inhibitor rotenone. LVDP is shown as a function of time.

For a further test, the target named is T1, pyruvate dehydrogenase (Bos taurus, UniProt A7MB35+P11966).
T1 construct: purchased Abcam ab110338 (lysate); ab109902 (assay kit); host or cells: bovine heart mitochondrial lysate
T1 sequence (A7MB35 30-390): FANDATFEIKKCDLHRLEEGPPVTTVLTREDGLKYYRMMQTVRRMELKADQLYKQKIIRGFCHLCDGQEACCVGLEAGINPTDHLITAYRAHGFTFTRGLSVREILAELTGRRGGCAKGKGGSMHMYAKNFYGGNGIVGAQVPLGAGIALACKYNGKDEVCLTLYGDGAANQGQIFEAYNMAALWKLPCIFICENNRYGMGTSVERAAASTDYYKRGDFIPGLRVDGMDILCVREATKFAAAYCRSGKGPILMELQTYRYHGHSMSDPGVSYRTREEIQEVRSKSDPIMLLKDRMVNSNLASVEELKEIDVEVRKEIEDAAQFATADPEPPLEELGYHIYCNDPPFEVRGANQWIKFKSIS
T1 sequence (P11966 31-359): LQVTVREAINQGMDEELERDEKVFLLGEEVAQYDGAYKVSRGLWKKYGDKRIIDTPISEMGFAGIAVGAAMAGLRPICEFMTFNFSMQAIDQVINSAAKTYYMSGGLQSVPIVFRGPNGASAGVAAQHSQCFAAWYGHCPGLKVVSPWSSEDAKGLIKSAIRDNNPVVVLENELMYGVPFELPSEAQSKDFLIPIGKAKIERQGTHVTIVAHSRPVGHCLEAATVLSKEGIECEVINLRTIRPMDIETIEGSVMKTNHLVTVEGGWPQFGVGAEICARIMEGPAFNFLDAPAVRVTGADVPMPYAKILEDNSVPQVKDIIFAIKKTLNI
T1 sequence (P11180 87-647 partner): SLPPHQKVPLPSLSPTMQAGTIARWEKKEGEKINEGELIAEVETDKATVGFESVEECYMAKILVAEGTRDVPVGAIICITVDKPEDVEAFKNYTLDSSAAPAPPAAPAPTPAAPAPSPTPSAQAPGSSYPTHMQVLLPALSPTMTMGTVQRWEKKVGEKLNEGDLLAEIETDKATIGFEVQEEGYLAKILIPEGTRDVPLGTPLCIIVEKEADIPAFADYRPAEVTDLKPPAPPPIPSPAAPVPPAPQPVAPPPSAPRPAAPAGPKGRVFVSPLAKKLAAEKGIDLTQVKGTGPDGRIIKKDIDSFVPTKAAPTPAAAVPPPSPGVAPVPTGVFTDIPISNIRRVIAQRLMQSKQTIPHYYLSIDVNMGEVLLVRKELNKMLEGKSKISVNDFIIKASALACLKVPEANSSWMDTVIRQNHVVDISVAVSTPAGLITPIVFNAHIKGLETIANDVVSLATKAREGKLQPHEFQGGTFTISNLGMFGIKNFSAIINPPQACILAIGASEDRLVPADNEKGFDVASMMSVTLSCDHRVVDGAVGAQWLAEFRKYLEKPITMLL
T1 sequence (P22439 54-501 partner): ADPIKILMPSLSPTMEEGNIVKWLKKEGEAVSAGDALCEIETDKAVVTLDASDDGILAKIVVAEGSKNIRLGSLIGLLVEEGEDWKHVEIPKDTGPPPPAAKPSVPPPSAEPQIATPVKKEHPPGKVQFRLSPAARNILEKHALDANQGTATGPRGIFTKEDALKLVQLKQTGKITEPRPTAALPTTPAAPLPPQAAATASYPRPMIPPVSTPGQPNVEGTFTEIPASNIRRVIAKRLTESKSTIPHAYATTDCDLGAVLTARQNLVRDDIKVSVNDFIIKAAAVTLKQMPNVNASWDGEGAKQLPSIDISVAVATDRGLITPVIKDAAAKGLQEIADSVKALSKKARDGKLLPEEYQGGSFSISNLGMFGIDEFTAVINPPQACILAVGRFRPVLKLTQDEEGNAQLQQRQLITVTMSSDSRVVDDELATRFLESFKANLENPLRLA
T1 sequence (F1N206 36-509 partner): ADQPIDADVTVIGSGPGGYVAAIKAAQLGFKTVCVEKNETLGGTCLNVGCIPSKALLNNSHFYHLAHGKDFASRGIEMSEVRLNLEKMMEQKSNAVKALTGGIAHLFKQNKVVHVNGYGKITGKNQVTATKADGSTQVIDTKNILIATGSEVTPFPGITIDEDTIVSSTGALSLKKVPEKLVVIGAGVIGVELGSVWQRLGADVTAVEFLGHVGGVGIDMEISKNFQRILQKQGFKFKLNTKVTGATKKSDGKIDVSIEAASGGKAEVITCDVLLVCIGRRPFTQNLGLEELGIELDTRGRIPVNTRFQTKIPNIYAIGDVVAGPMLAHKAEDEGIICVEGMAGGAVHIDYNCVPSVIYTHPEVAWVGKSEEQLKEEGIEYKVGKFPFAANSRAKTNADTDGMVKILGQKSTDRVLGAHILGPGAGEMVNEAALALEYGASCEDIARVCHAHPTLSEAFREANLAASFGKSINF
The experiment in a line: Pyruvate Dehydrogenase (PDH) Enzyme Activity Microplate Assay. Type of test: biochemical, bovine. Particulars: vehicle mean as 100 percent. The method, then: To examine the effect of α-KB on pyruvate dehydrogenase, the Pyruvate Dehydrogenase (PDH) Enzyme Activity Microplate Assay Kit (Abcam, ab109902) was used. The assay was performed according to the protocol provided. Detergent was added to bovine heart mitochondrial lysate (Abcam, ab110338) and followed by an incubation at 4° C. for 20 minutes to release PDH. The sample was then centrifuged at 14,000×g for 10 minutes. Supernatant was diluted with the incubation buffer and added to a PDH antibody-coated 96-well plate. After 3 hours incubation followed by 2× wash with stabilizer buffer, the wells were added with 200 μL of reaction mix containing 10, 20, 50, 200, and 800 μM α-KB or vehicle control (distilled water). Each condition was performed in triplicates. Kinetic measurements of absorbance at 450 nm with 1 minute intervals were taken, and PDH activity was calculated from the slope of the absorbance to time. The readings were normalized to vehicle mean (as 100 percent).

For test [1], the target named is TOR (target of rapamycin) (Homo sapiens, UniProt P42345). The experiment in a line: TOR inhibition.
For test [2], the system named is NADH dehydrogenase (Complex I). The experiment in a line: NADH dehydrogenase (Complex I) driven coupling assay, isolated liver mitochondria (pyruvate and malate). Type of test: biochemical, mouse. The following applies: respiration driven by pyruvate and malate. The method, then: Animal studies were performed under approved UCLA animal research protocols. Mitochondria from 3-month-old C57BL/6 mice were isolated. Briefly, livers were extracted, minced at 4° C. in MSHE+BSA (70 mM sucrose, 210 mM mannitol, 5 mM HEPES, 1 mM EGTA, and 0.5% fatty acid free BSA, pH 7.2), and rinsed several times to remove blood. All subsequent steps were performed on ice or at 4° C. The tissue was disrupted in 10 volumes of MSHE+BSA with a glass Dounce homogenizer (5-6 strokes) and the homogenate was centrifuged at 800×g for 10 minutes to remove tissue debris and nuclei. The supernatant was decanted through a cell strainer and centrifuged at 8,000×g for 10 minutes. The dark mitochondrial pellet was resuspended in MSHE+BSA and re-centrifuged at 8,000×g for 10 minutes. The final mitochondrial pellet was resuspended in 30 μl of MAS buffer (70 mM sucrose, 220 mM mannitol, 10 mM KH2PO4, 5 mM MgCl2, 2 mM HEPES, 1 mM EGTA, and 0.2% fatty acid free BSA, pH 7.2). Isolated mitochondrial respiration was measured by running coupling and electron flow assays as described. […]
Mitochondrial respiration was measured by running coupling and electron flow assays. […]

As to `CCC(=O)C(=O)O` [α-KB, α-ketobutyrate], in the test on male mice, the “ratio of infarct size to AAR” value was 31.2±3.6. Besides, the “heart function after ischemia (LVDP)” value in the test on Isolated hearts is listed as “restores heart function after ischemia”. For the same compound, the “normalized PDH activity (percentage)” value worked out at 68.0±11.8 percentage at pyruvate dehydrogenase (200 μM) and 41.6±7.89 percentage on pyruvate dehydrogenase (800 μM). Also, the “inhibition of TOR” value in test [1] is listed as “does not inhibit”. The “ADP-induced and FCCP-induced respiration” value in test [2] is “significant decrease”.
